Results published in patent publication US12606529B2, “Sulfur and amide tropolone inhibitors of nucleotidyl transferases and uses therefor” (Saint Louis University, priority 2019, dated 2026).
Values after ≈ are worked out from the molar mass of the structure shown. Read-outs that look alike come from different tables or passages of the source.

Legend:
[1] = tested on: HBV replication; test: HBV replication inhibition in HepDES19 cells (strand-preferential qPCR); details: for EC50: Hepatitis B virus
Method: Cells used for toxicity and HBV studies.
HBV replication inhibition studies. HepDES19 cells were seeded in 96-well plates at 4×10^4 cells per well in the absence of tetracycline. Test compounds in a final DMSO concentration of 1% were applied to cells 48 hours after induction of HBV replication and cells were incubated with compounds for 72 hours. Cells were washed in 200 μL of phosphate buffered saline (PBS) and lysed in 150 μL of core lysis buffer (10 mM Tris pH 7.4, 1% Tween20, 150 mM NaCl). Cells were incubated at room temperate on an orbital shaker at 350 rpm for 40 minutes. Cell lysate was transferred to a 96 well polymerase chain reaction (PCR) plate and centrifuged at 3300×g for 5 minutes. The supernatant (50 μL) from the cell lysate was transferred to a 96-well PCR plate and mixed with 20 units of micrococcal nuclease and 100 μM CaCl2. The lysate was incubated for 1 hour at 37° C., and then the nuclease was inactivated at 70° C. for ten minutes. Qiagen protease (0.005 Anson units) was added to the lysate and the mixture was incubated overnight. Qiagen protease was then inactivated at 95° C. for ten minutes.
The crude lysate was used as the template for strand-preferential quantitative polymerase chain reaction (q-PCR) analysis. Quantitative PCR was performed with 40 cycles of 95° C. for 15 s and 60° C. for 1 minute employing the Kappa Probe Force universal PCR master mix.

[2] = tested on: HSV-1; test: Anti-HSV-1 replication assay (Vero cells, plaque titer); format: cell-based, herpes simplex virus 1; details: Human alphaherpesvirus 1, Vero, values separated by / are repeats; for log reduction at 0.33 µM: compound at 0.33 μM, read-out: HSV-1 suppression 0.33 μM; for log reduction at 5 µM: compound at 5 μM, read-out: HSV-1 suppression 5 μM; for log reduction at 1 µM: compound at 1 μM, read-out: HSV-1 suppression 1 μM
[3] = tested on: C. neoformans var. grubii, KN99; test: C. neoformans growth inhibition assay (limiting dilution); format: cell-based, Cryptococcus neoformans; details: Cryptococcus neoformans, 48 h, 48 h, 35° C., read-out: C. neoformans MIC80
Method: Cell types used for C. neoformans studies. All inhibition assays were performed with C. neoformans var. grubii, KN99 (serotype A, MAT). Two clinical strains of C. neoformans var. grubii, serotype A, were provided by Tamara Doering and Andre Spec. […] Cells were diluted to OD650 0.001 in YNB-02 02 (0.67% yeast nitrogen base, 0.2% dextrose, pH 7.0 with 50 mM MOPs)+1% DMSO prior to addition to the plates for the inhibition assays.
C. neoformans growth inhibition assays. Compounds were tested in a limiting dilution assay with a starting optical density (at 650 nm) of 0.001 in YNB-02 plus 1% DMSO. Cells plus compound were incubated in 96-well clear round bottom plates covered with a Breath-easy® membrane without shaking for 48 hours at 35° C. Before measuring cell density, plates were shaken on a microtiter plate shaker at 900 rpm for 3 minutes to resuspend cells and optical density was measured at 650 nm. […] Each assay was done in triplicate and all values are the average of two or more independent assays. The data are presented as the average cell density as a percent of DMSO-only treated cells. MICs are reported as the minimal concentration needed to inhibit 80% of C. neoformans growth relative to vehicle-treated controls.

[4] = in vitro; details: human, HepDES19 cells
Method: Cells used for toxicity and HBV studies. […] Cells were maintained in Dulbecco's modified Eagle's medium (DMEM)/F12 media supplemented with 10% fetal bovine serum (FBS) and 1% penicillin/streptomycin (P/S) with 1 μg/mL tetracycline. Synchronized expression of HBV pgRNA was induced by removing tetracycline from the culture medium.
Cytotoxicity Assays. Qualitative assessments of cytotoxicity were done visually by inspecting the cells in the primary screening assays. […] The next day the compounds were added at 0.78 to 100 μM in a final concentration of 1% (v/v) DMSO, and the cells were incubated for 24 hours under conditions identical to those employed for the viral replication inhibition assays. Mitochondrial toxicity was measured by incubating the cells with 0.25 mg/mL thiazolyl blue tetrazolium bromide (MTT, SigmaAldrich Chemical Co.), the cultures were incubated for 60 mM, metabolites were solubilized in acidic isopropanol, and absorbance was read at 570 nm. CC50 values were calculated by non-linear curve fitting using GraphPad Prism using the three-parameter variable-response log(inhibitor)-versus-response algorithm with the bottom value set to zero.

[5] = target: T1, human RNaseH1 (Homo sapiens, UniProt O60930); test: Biochemical inhibition of human RNaseH1 activity; details: Table 2 amides; read-out: HuRH1 IC50
T1 sequence (O60930 1-286): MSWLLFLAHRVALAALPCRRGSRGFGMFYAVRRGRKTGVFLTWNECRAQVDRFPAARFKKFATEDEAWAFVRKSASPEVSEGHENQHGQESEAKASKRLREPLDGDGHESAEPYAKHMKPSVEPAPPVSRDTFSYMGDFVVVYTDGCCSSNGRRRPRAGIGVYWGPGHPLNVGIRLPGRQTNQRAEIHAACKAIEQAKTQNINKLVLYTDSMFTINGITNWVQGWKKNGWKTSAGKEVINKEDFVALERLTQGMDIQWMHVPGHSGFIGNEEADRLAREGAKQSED
Method: Biochemical inhibition of human RNaseH1 activity. Quantitative inhibition of the human RNaseH1 in the biochemical assays was assessed using a molecular beacon assay as described previously (Edwards et al., 2017). Recombinant human RNaseH 1 (0.3 μg) was incubated with 100 nM RNA:DNA substrate, 50 mM HEPES pH 8.0, 100 mM NaCl, 2 mM Tris(2-carboxyethyl)phosphine hydrochloride (TCEP), 0.05% Tween20, 5 units of RNaseOut, test compounds (0 to 500 μM), and 5% DMSO in a 100 μL reaction volume. The substrate was formed by annealing a complementary RNA oligonucleotide to a hairpin DNA oligonucleotide to hold the hairpin DNA oligonucleotide in an open conformation. The DNA oligonucleotide has a 5′ fluorescein reporter and a 3′ black hole quencher. When the RNA is degraded from the substrate the DNA oligonucleotide closes to form a hairpin structure, decreasing in signal intensity. Reactions were initiated with 5 mM MgCl2 and fluorescence was read using a Synergy HTS multi-mode plate reader at 37° C. Alternatively, the HBV RNaseH version used was MBP-HRHgtCΔ5, a genotype C isolate which lacks the C-terminal 35 amino acids of the HBV RNaseH domain that are predicted to be unstructured. Quantitative inhibition of the human RNaseH1 in biochemical assays was assessed using a FRET-based RNaseH assay under conditions previously reported for an RNaseH molecular beacon assay (Edwards et al., 2017). […] Cleavage of the RNA strand released the fluorescein from quenching, increasing fluorescence. Reactions were monitored for 90 min at 37° C. in a plate reader and initial reaction rates were calculated. Reactions contained escalating concentrations of the compounds.

[6] = HepDES19, read-out: HBV EC50, Table 3 sulfur compounds, HBV replication, HepDES19 cells
[7] = CC50, Table 3 sulfur compounds, MTT
[8] = Table 2 amides, tested 0.19 to 50 μM

| Compound | EC50 [1, 6] [µM] | log reduction at 5 µM ([2]; Table 3 sulfur compounds) | MIC80 ([3]; Table 3 sulfur compounds) [µM] | CC50 at 24 h [4, 7] [µM] | IC50 [5] [µM] | log reduction at 5 µM ([2]; Table 2 amides) | MIC80 [3, 8] [µM] | CC50 at 24 h ([4]; CC50 (μM), Table 2 amides, MTT) [µM] | other results |
| --- | --- | --- | --- | --- | --- | --- | --- | --- | --- |
| Cc1cc(O)c(=O)c(O)cc1S(=O)(=O)c1ccccc1 [compound 336] | 0.68 | 1.57 | 50 (≈ 14.6 µg/mL) |  |  |  |  |  | log reduction at 0.33 µM ([2]; Table 3 sulfur compounds): 0.13 |
| Cc1cc(O)c(=O)c(O)cc1S(=O)(=O)c1ccc(-c2ccccc2)cc1 [compound 337] | 5.73 |  | 50 (≈ 18.4 µg/mL) | 47.4 |  |  |  |  | log reduction at 0.33 µM ([2]; Table 3 sulfur compounds): 0.28 |
| Cc1ccc(S(=O)(=O)c2cc(O)c(=O)c(O)cc2C)cc1 [compound 367] | 16.1 | 0.49 | 24 (≈ 7.35 µg/mL) | 23 |  |  |  |  | log reduction at 1 µM ([2]; Table 3 sulfur compounds): 0 |
| CS(=O)(=O)c1ccc(O)c(=O)c(O)c1 [compound 382] | 0.58 |  | 50 (≈ 10.8 µg/mL) | 79.5 |  |  |  |  | Therapeutic index (CC50/EC50) for HBV (TI, SI) [1]: 136 |
| CSc1cccc(O)c(=O)c1O [compound 385] | 4.4 | 2.5 | 24 (≈ 4.42 µg/mL) | 100 |  |  |  |  | CC50 at 24 h ([4]; CC50): 100 µM |
| CSc1ccc(SC)c(O)c(=O)c1O [compound 386] | 6.73 | 0.51 | 24 (≈ 5.53 µg/mL) | 68.9 |  |  |  |  |  |
| CS(=O)(=O)c1cccc(O)c(=O)c1O [compound 387] | 0.41 | 0.02 | 50 (≈ 10.8 µg/mL) |  |  |  |  |  | EC50 ([1]; HepDES19, read-out: EC50 against HBV replication): 0.41 µM |
| O=c1c(O)cccc(S(=O)(=O)c2ccccc2)c1O [compound 408] | 11.1 | 0.56 | 50 (≈ 13.9 µg/mL) | 20.4 |  |  |  |  |  |
| CCCCS(=O)(=O)c1cccc(O)c(=O)c1O [compound 535] | 2.02 |  | 50 (≈ 12.9 µg/mL) | 19.2 |  |  |  |  | log reduction at 1 µM ([2]; Table 3 sulfur compounds): 0.07 |
| CCCCS(=O)(=O)c1ccc(S(=O)(=O)CCCC)c(O)c(=O)c1O [compound 536] | 50 | 0.35 | 50 (≈ 18.9 µg/mL) | 100 |  |  |  |  | log reduction at 1 µM ([2]; Table 3 sulfur compounds): 0.09; CC50 at 24 h ([4]; CC50): 100 µM |
| CC(C)S(=O)(=O)c1cccc(O)c(=O)c1O [compound 537] | 0.51 |  | 50 (≈ 12.2 µg/mL) | 20.6 |  |  |  |  | Therapeutic index (CC50/EC50) for HBV (TI, SI) [1]: 41; log reduction at 1 µM ([2]; Table 3 sulfur compounds): 0.25 |
| Cc1cc(O)c(=O)c(O)cc1C(=O)Nc1cccc(OCc2ccccc2)c1 [compound 836] |  |  |  |  | 606 ± 482 | 5.2 | 4.5 (≈ 1.7 µg/mL) | 5.4 ± 3.5 |  |
| Cc1cc(O)c(=O)c(O)cc1C(=O)NC(CCC(=O)OC(C)(C)C)C(=O)OC(C)(C)C (centres unmarked) [compound 867] |  |  |  |  | 675 ± 563 | 3.49 | 4.3 (≈ 1.88 µg/mL) | 5.2 ± 1.3 |  |
| Cc1cc(O)c(=O)c(O)cc1C(=O)NC(CCC(=O)O)C(=O)O (centres unmarked) [compound 868] |  |  |  |  | 27.7 ± 20.3 | 0.0414 | 50 (≈ 16.3 µg/mL) | 100 | log reduction at 1 µM ([2]; Table 2 amides): -0.15; CC50 at 24 h ([4]; CC50): 100 µM |
| Cc1cc(O)c(=O)c(O)cc1C(=O)NC(CCCCNC(=O)OC(C)(C)C)C(=O)OC(C)(C)C (centres unmarked) [compound 869] |  |  |  |  | 602 ± 273 | -0.147 | 9 (≈ 4.33 µg/mL) | 14.6 ± 3.4 |  |
| Cc1cc(O)c(=O)c(O)cc1C(=O)NC(CC(C)C)C(=O)OC(C)(C)C (centres unmarked) [compound 870] |  |  |  |  | 289 ± 296 | 0.811 | 5 (≈ 1.83 µg/mL) | 9.1 ± 2.7 |  |
| Cc1cc(O)c(=O)c(O)cc1C(=O)N1CCN(C(=O)C2CCCCC2)CC1 [compound 872] |  |  |  |  | 93 ± 53.3 | 0.643 | 20 (≈ 7.49 µg/mL) | 14.4 ± 3.7 | log reduction at 1 µM ([2]; Table 2 amides): -0.158 |
| Cc1cc(O)c(=O)c(O)cc1C(=O)N1CCN(C(=O)OC(C)(C)C)CC1 [compound 873] |  |  |  |  | 74.7 ± 23.1 | 0.2 | 20 (≈ 7.29 µg/mL) | 19.5 ± 8.7 | log reduction at 1 µM ([2]; Table 2 amides): -0.148 |
| Cc1cc(O)c(=O)c(O)cc1C(=O)NCCNS(=O)(=O)c1ccc(C(F)(F)F)cc1 [compound 874] |  |  |  |  | 52.6 | -0.15 | 14 (≈ 6.25 µg/mL) | 17.7 ± 6.7 |  |
| Cc1cc(O)c(=O)c(O)cc1C(=O)N1CCN(C(=O)c2ccc(Cl)cc2)CC1 [compound 875] |  |  |  |  | 17.2 ± 11 | 1.32 | 7 (≈ 2.82 µg/mL) | 4.7 ± 1.8 | log reduction at 1 µM ([2]; Table 2 amides): 0.0449 |
| COc1ccc(C(=O)N2CCN(C(=O)c3cc(O)c(=O)c(O)cc3C)CC2)cc1 [compound 877] |  |  |  |  | 34.9 ± 7.2 | 0.175 | 14 (≈ 5.58 µg/mL) | 16.5 ± 1.4 | log reduction at 1 µM ([2]; Table 2 amides): -0.232 |
